Results published in patent US12180207B2 (ARRAY BIOPHARMA INC., priority 2018, dated 2024).

Columns and labels:
[1] = molecular target: FGFR3 (SEQ ID NO: 5, amino acids 449-759) (Homo sapiens (Human), UniProt P22607); assay: LC/MS FGFR3 kobs assay (covalent protein modification); type: binding; conditions: 500 nM FGFR3, 3 μM compound
How it was run: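 Quench: 0.4% formic acid at each time point. Readout: intact-protein LC/MS (Q-TOF), deconvoluted masses. Analysis: % unmodified, normalized to DMSO controls, fit to exponential decay → kobs; mean of replicates where repeated.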

[2] = molecular target: recombinant human FGFR2 cytoplasmic domain (amino acids 403-822) (Homo sapiens (Human), UniProt P21802); assay: FGFR2 enzyme activity assay (LanthaScreen TR-FRET); type: biochemical; conditions: 15 μM ATP, 20 min incubation at 22° C., average of multiple determinations if made, read-out: FGFR2 Enz FRET IC50
Chain of recombinant human FGFR2 cytoplasmic domain (amino acids 403-822) (P21802 402-821): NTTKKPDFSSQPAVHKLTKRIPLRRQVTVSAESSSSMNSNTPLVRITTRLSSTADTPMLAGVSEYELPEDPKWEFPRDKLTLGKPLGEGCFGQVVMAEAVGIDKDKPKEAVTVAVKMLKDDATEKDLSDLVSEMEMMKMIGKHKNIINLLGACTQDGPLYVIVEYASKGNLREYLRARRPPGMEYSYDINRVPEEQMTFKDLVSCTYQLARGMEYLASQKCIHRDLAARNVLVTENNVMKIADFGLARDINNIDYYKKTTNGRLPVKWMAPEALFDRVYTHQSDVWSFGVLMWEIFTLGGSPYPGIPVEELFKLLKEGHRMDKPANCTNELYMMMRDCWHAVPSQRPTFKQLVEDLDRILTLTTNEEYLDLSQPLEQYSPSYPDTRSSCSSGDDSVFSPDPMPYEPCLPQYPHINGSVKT
How it was run: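 Substrate phosphorylation was read by TR-FRET using Eu-PY20 antibody (60 min, 22 °C) after a 20 min, 22 °C reaction. The reaction used 15 μM ATP, 100 nM fluorescent poly-GT peptide and His-tagged FGFR2 403-822 ([…]) at pH 7.5 with 2% DMSO.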

[3] = molecular target: HEK-293 cells transfected with dox-inducible human wild type FGFR3 (Homo sapiens (Human), UniProt P22607); assay: FGFR3 pFGFR cell assay (ELISA); type: cell-based; conditions: HEK-293 dox-inducible FGFR3, 1 hour compound, 100 ng/ml FGF-acidic
Chain of HEK-293 cells transfected with dox-inducible human wild type FGFR3 (P22607 23-806): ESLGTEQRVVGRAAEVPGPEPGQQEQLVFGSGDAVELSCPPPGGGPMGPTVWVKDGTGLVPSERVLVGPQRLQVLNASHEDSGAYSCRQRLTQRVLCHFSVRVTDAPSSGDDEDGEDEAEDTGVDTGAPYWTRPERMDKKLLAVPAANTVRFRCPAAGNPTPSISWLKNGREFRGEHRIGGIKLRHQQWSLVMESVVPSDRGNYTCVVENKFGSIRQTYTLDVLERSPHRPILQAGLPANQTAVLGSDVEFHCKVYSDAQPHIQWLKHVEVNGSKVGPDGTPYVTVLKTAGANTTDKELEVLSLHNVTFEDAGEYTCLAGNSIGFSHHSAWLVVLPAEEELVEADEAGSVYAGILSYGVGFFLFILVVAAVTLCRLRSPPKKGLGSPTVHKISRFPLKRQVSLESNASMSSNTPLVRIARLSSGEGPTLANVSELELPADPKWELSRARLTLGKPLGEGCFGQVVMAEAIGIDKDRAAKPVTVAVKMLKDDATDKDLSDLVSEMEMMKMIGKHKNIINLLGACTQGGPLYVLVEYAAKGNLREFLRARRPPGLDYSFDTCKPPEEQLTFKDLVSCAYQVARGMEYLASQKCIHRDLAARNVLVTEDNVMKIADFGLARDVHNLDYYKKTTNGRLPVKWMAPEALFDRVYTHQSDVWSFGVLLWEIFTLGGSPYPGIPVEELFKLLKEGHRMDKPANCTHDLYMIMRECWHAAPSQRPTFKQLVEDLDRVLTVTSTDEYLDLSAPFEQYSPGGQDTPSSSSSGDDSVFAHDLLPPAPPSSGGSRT
How it was run: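 Doxycycline-induced (1 μg/ml) HEK-293 cells expressing wild-type human FGFR3, treated 1 h with compound (1:3 series, top final 5 μM), then stimulated 5 min with 100 ng/ml FGF-acidic. Phospho-FGFR3 measured by ELISA (total FGFR3 capture, phosphotyrosine detection, OD 450 nm); IC50 from 4-parameter fit of POC values.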

[4] = molecular target: HEK-293 cells transfected with dox-inducible human wild type FGFR1 (Homo sapiens (Human), UniProt P11362); assay: FGFR1 pERK cell assay; type: cell-based; conditions: HEK-293 dox-inducible FGFR1, 1 hour compound, 100 ng/ml FGF-acidic; maximum concentration 5 μM
Chain of HEK-293 cells transfected with dox-inducible human wild type FGFR1 (P11362 22-822): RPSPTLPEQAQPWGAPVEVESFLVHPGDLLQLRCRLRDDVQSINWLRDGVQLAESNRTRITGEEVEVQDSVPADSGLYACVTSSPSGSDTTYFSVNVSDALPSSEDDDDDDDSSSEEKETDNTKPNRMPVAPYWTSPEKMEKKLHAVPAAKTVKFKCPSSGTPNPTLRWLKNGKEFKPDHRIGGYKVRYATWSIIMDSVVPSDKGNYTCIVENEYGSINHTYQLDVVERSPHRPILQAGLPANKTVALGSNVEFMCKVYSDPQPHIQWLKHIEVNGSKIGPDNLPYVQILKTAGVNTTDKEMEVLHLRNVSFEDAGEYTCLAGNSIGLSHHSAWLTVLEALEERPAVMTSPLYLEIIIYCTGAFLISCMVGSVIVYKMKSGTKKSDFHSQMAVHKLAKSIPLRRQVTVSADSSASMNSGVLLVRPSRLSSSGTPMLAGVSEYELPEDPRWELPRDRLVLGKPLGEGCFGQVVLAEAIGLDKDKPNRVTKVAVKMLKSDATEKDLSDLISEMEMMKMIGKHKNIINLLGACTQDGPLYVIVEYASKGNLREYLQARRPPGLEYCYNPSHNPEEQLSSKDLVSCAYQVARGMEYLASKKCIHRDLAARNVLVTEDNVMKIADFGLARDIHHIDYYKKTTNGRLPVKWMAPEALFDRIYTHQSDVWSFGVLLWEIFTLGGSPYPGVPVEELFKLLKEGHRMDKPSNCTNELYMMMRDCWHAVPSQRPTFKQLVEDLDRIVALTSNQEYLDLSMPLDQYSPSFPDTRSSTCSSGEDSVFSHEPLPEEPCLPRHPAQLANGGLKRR
How it was run: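 In HEK-293 cells with dox-induced human wild-type FGFR1, compounds (1:3 dilutions, top 5 μM final) were applied 1 h at 37°C before 5 min stimulation with 100 ng/ml FGF-acidic. Phospho-ERK1/2 measured by MSD sandwich immunoassay; IC50 from 4-parameter fit of POC versus vehicle and control compound.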

Chain of FGFR3 (SEQ ID NO: 5, amino acids 449-759) (P22607 449-759): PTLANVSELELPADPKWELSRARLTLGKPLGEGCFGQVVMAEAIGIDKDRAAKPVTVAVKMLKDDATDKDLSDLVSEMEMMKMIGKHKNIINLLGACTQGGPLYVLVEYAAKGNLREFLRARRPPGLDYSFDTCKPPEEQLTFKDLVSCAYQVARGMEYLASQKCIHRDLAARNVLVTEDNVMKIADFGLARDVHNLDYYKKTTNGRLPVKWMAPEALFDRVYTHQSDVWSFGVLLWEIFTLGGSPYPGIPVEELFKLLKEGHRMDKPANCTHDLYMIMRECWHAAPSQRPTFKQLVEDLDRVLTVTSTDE

Row | Structure (SMILES) | FGFR3 Enz kobs [1] [min⁻¹] | IC50 [2] [nM] | IC50 [3] [nM] | IC50 [4] [nM]
1 | C=CC(=O)N1C2CC1CN(C(=O)N1CCC(n3cc(-c4cc(OC)c5c(C#N)cnn5c4)cn3)CC1)C2 [Example 1, 6-(1-(1-(6-acryloyl-3,6-diazabicyclo[3.1.1]heptane-3-carbonyl)piperidin-4-yl)-1H-pyrazol-4-yl)-4-methoxypyrazolo[1,5-a]pyridine-3-carbonitrile] | 0.01496 | 15 | 26 | 525
2 | C=CC(=O)N1C2COCC1CN(C(=O)N1CCC(n3cc(-c4cc(OC)c5c(C#N)cnn5c4)cn3)CC1)C2 [Example 3, 6-(1-(1-(9-acryloyl-3-oxa-7,9-diazabicyclo[3.3.1]nonane-7-carbonyl)piperidin-4-yl)-1H-pyrazol-4-yl)-4-methoxypyrazolo[1,5-a]pyridine-3-carbonitrile] | 0.01875 | 5 | 41 | 870
3 | C=CC(=O)N1CC(C(=O)N2CCC(n3cc(-c4cc(OC)c5c(C#N)cnn5c4)cn3)CC2)C1 [Example 36, 6-(1-(1-(1-acryloylazetidine-3-carbonyl)piperidin-4-yl)-1H-pyrazol-4-yl)-4-methoxypyrazolo[1,5-a]pyridine-3-carbonitrile] | 0.01426 | – | 37 | 363
4 | C=CC(=O)N1CC(OC)(C(=O)N2CCC(n3cc(-c4cc(OC)c5c(C#N)cnn5c4)cn3)CC2)C1 [Example 41, 6-(1-(1-(1-acryloyl-3-methoxyazetidine-3-carbonyl)piperidin-4-yl)-1H-pyrazol-4-yl)-4-methoxypyrazolo[1,5-a]pyridine-3-carbonitrile] | 0.02709 | 1 | 10 | 91
5 | C=CC(=O)N1CC(C(=O)N2CCC(n3cc(-c4cc(OC)c5c(C#N)cnn5c4)cn3)CC2)C1(C)C (stereo not shown) [Example 43, 6-(1-(1-(1-acryloyl-2,2-dimethylazetidine-3-carbonyl)piperidin-4-yl)-1H-pyrazol-4-yl)-4-methoxypyrazolo[1,5-a]pyridine-3-carbonitrile] | 0.0041 | 3 | 64 | 428
6 | C=CC(=O)Nc1ccc(C(=O)N2CC[C@@H](n3cc(-c4cc(OC)c5c(C#N)cnn5c4)cn3)C2)cc1 [Example 55, (R)-N-(4-(3-(4-(3-cyano-4-methoxypyrazolo[1,5-a]pyridin-6-yl)-1H-pyrazol-1-yl)pyrrolidine-1-carbonyl)phenyl)acrylamide] | 0.0205 | 5 | 64 | 381
7 | C=CC(=O)N1CC(C(=O)N2CC(n3cc(-c4cc(OC)c5c(C#N)cnn5c4)cn3)C2)C1 [Example 78, 6-(1-(1-(1-acryloylazetidine-3-carbonyl)azetidin-3-yl)-1H-pyrazol-4-yl)-4-methoxypyrazolo[1,5-a]pyridine-3-carbonitrile] | 0.01629 | 23 | 536 | –
8 | C=CC(=O)N1CC(CN2CC(n3cc(-c4cc(OC)c5c(C#N)cnn5c4)cn3)C2)C1 [Example 81, 6-(1-(1-((1-acryloylazetidin-3-yl)methyl)azetidin-3-yl)-1H-pyrazol-4-yl)-4-methoxypyrazolo[1,5-a]pyridine-3-carbonitrile] | 0.00615 | 8 | 117 | –
9 | C=CC(=O)N1CCC(C(=O)N2CCC(n3ncc(-c4cc(OC)c5c(C#N)cnn5c4)c3C)CC2)CC1 [Example 82, 6-(1-(1-(1-acryloylpiperidine-4-carbonyl)piperidin-4-yl)-5-methyl-1H-pyrazol-4-yl)-4-methoxypyrazolo[1,5-a]pyridine-3-carbonitrile] | 0.00319 | 9 | 814 | 3360
10 | C=CC(=O)N1CC[C@@H](C(=O)N2CCC(n3ncc(-c4cc(OC)c5c(C#N)cnn5c4)c3C)CC2)C1 [Example 83, (R)-6-(1-(1-(1-acryloylpyrrolidine-3-carbonyl)piperidin-4-yl)-5-methyl-1H-pyrazol-4-yl)-4-methoxypyrazolo[1,5-a]pyridine-3-carbonitrile] | 0.00547 | 9 | 546 | ≥ 5000
11 | C=CS(=O)(=O)N[C@@H]1CC[C@H](C(=O)N2CCC(n3cc(-c4cc(OC)c5c(C#N)cnn5c4)cn3)CC2)C1 [Example 191, N-((1R,3S)-3-(4-(4-(3-cyano-4-methoxypyrazolo[1,5-a]pyridin-6-yl)-1H-pyrazol-1-yl)piperidine-1-carbonyl)cyclopentyl)-ethenesulfonamide] | 0.02236 | 5 | 20 | –

Now from value to molecule:

Row | FGFR3 Enz kobs [1] [min⁻¹] | IC50 [2] [nM] | IC50 [3] [nM] | IC50 [4] [nM] | Structure (SMILES)
12 | 0.02377 | 2 | 15 | 247 | C=CC(=O)N1CCC(C#N)(C(=O)N2CCC(n3cc(-c4cc(OC)c5c(C#N)cnn5c4)cn3)CC2)C1 (stereo not shown) [Example 31, 6-(1-(1-(1-acryloyl-3-cyanopyrrolidine-3-carbonyl)piperidin-4-yl)-1H-pyrazol-4-yl)-4-methoxypyrazolo[1,5-a]pyridine-3-carbonitrile]
13 | 0.07092 | 7 | 12 | 59 | C=CC(=O)N1CC(F)(C(=O)N2CCC(n3cc(-c4cc(OC)c5c(C#N)cnn5c4)cn3)CC2)C1 [Example 37, 6-(1-(1-(1-acryloyl-3-fluoroazetidine-3-carbonyl)piperidin-4-yl)-1H-pyrazol-4-yl)-4-methoxypyrazolo[1,5-a]pyridine-3-carbonitrile]
14 | 0.2019 | 5 | 101 | 52 | C=CC(=O)N1CC(C#N)(C(=O)N2CCC(n3cc(-c4cc(OC)c5c(C#N)cnn5c4)cn3)CC2)C1 [Example 39, 6-(1-(1-(1-acryloyl-3-cyanoazetidine-3-carbonyl)piperidin-4-yl)-1H-pyrazol-4-yl)-4-methoxypyrazolo[1,5-a]pyridine-3-carbonitrile]
15 | 0.01575 | 6 | 31 | 631 | C=CC(=O)N1CC(C(=O)N2CCC(n3cc(-c4cc(OC)c5c(C#N)cnn5c4)cn3)CC2)C1C (stereo not shown) [Example 42, 6-(1-(1-(1-acryloyl-2-methylazetidine-3-carbonyl)piperidin-4-yl)-1H-pyrazol-4-yl)-4-methoxypyrazolo[1,5-a]pyridine-3-carbonitrile]
16 | 0.00317 | 17 | 1900 | – | C=CC(=O)N1CC[C@H](C(=O)N2CC(n3cc(-c4cc(OC)c5c(C#N)cnn5c4)cn3)C2)C1 [Example 76, (S)-6-(1-(1-(1-acryloylpyrrolidine-3-carbonyl)azetidin-3-yl)-1H-pyrazol-4-yl)-4-methoxypyrazolo[1,5-a]pyridine-3-carbonitrile]
17 | 0.02394 | 15 | 77 | 2530 | C=CC(=O)N1CC(C(=O)N2CCC(n3ncc(-c4cc(OC)c5c(C#N)cnn5c4)c3C)CC2)C1 [Example 84, 6-(1-(1-(1-acryloylazetidine-3-carbonyl)piperidin-4-yl)-5-methyl-1H-pyrazol-4-yl)-4-methoxypyrazolo[1,5-a]pyridine-3-carbonitrile]
18 | 0.1061 | 13 | 16 | 462 | C=CC(=O)N1CC(F)(C(=O)N2CCC(n3ncc(-c4cc(OC)c5c(C#N)cnn5c4)c3C)CC2)C1 [Example 85, 6-(1-(1-(1-acryloyl-3-fluoroazetidine-3-carbonyl)piperidin-4-yl)-5-methyl-1H-pyrazol-4-yl)-4-methoxypyrazolo[1,5-a]pyridine-3-carbonitrile]
19 | 0.01958 | 4 | 57 | – | C=CC(=O)Nc1ccc(C(=O)N2CCC(n3cc(-c4cc(OC)c5c(C#N)cnn5c4)cn3)CC2)cc1 [Example 177, N-(4-(4-(4-(3-cyano-4-methoxypyrazolo[1,5-a]pyridin-6-yl)-1H-pyrazol-1-yl)piperidine-1-carbonyl)phenyl)acrylamide]
20 | 0.02714 | 3 | 32 | – | C=CS(=O)(=O)N[C@H]1CC[C@H](C(=O)N2CCC(n3cc(-c4cc(OC)c5c(C#N)cnn5c4)cn3)CC2)C1 [Example 190, N-((1S,3S)-3-(4-(4-(3-cyano-4-methoxypyrazolo[1,5-a]pyridin-6-yl)-1H-pyrazol-1-yl)piperidine-1-carbonyl)cyclopentyl)-ethenesulfonamide]
